The cell lines below were run with CCOC(=O)CCNc1cc(N2CCc3ccccc3CC2)nc(-c2ccccn2)n1 [GSK-J4] + O=C(c1cc(Cc2n[nH]c(=O)c3ccccc23)ccc1F)N1CCN(C(=O)C2CC2)CC1 [Olaparib] (partner 8 µM) (assay: relative viability (nuclei count vs DMSO), 5 days (fraction); higher = more cells survive). Settings: first compound 50 µM.
Summary of the method: (§1)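 Lung cancer cell lines were seeded in 1536-well plates and dosed by pin tool the next day, with either a single drug or a fixed anchor-drug dose combined with five library-drug doses (not always all listed) spaced in √10 steps. Five days later, one step fixed the cells and stained their nuclei (final 0.05% Triton X-100, 1% formaldehyde, 1 ug/ml Hoechst), and nuclei were counted on 4× images. Relative viability is the nuclei count in treated wells divided by the count in vehicle wells, and each value is the median of duplicate plates.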
LOU-NH91 showed a relative viability of 0.802. For NCI-H647, the relative viability was 0.374. NCI-H23 was tested, and the relative viability was 0.285. For EPLC-272H, the relative viability was 0.289. Cell Line NCI-H2126 has a relative viability of 0.762. ChaGo-K-1 was tested, and the relative viability was 0.275. HCC-44 gave a relative viability of 0.906. In the case of NCI-H1734, the relative viability is reported as 0.333. With NCI-H650 the relative viability was 0.296. LK-2 gave a relative viability of 0.364. Cell Line NCI-H2228 has a relative viability of 0.903. NCI-H2342 gave a relative viability of 0.476. Cell Line NCI-H1944 has a relative viability of 0.358. With Calu-6 the relative viability was 0.608. COR-L23 showed a relative viability of 0.293. With EBC-1 the relative viability was 0.453. A549 gave a relative viability of 0.392. In the case of SW 900, the relative viability is reported as 0.549. NCI-H1299 showed a relative viability of 0.772. CAL-12T showed a relative viability of 0.548. Cell Line NCI-H1648 has a relative viability of 0.793. In the case of NCI-H520, the relative viability is reported as 0.29. Work on IA-LM yielded a relative viability of 0.169. NCI-H661 showed a relative viability of 0.461. COR-L 105 was tested, and the relative viability was 0.764. Work on NCI-H1703 yielded a relative viability of 0.422. NCI-H1650 showed a relative viability of 0.509. NCI-H2009 was tested, and the relative viability was 0.449. In the case of SK-MES-1, the relative viability is reported as 0.22. Work on SW 1573 yielded a relative viability of 0.153.

What follows are cell lines tested with CN1CCC(CC1)OC2=CC(=C(C=C2)NC3=NC=C4C(=N3)N(C(=O)N4C)C5CCCC5)OC [AZ3146] + Nc1ncn([C@H]2C[C@H](O)[C@@H](CO)O2)c(=O)n1 [Decitabine] (partner 2 µM) in the same assay as above. Settings: first compound 0.08 µM.
Summary of the method: as §1
Work on NCI-H522 yielded a relative viability of 0.732. In the case of PC-14, the relative viability is reported as 0.208. In the case of NCI-H1666, the relative viability is reported as 0.666. EKVX gave a relative viability of 0.285. NCI-H1755 showed a relative viability of 0.68. With NCI-H2023 the relative viability was 0.235. With SK-LU-1 the relative viability was 0.558. With PC-3 [JPC-3] the relative viability was 0.768. LOU-NH91 was tested, and the relative viability was 0.816. Cell Line NCI-H647 has a relative viability of 0.359. NCI-H23 gave a relative viability of 0.329. Cell Line EPLC-272H has a relative viability of 0.375. Work on NCI-H2126 yielded a relative viability of 0.626. With ChaGo-K-1 the relative viability was 0.509. Work on HCC-44 yielded a relative viability of 0.912. Work on NCI-H1734 yielded a relative viability of 0.4. NCI-H650 was tested, and the relative viability was 0.307. For NCI-H2342, the relative viability was 0.653. With NCI-H1944 the relative viability was 0.329. COR-L23 was tested, and the relative viability was 0.377. For A549, the relative viability was 0.318. Work on SW 900 yielded a relative viability of 0.389. Work on NCI-H520 yielded a relative viability of 0.468. For NCI-H661, the relative viability was 0.541. With COR-L 105 the relative viability was 0.647. In the case of NCI-H1650, the relative viability is reported as 0.377. With NCI-H2009 the relative viability was 0.372. SK-MES-1 gave a relative viability of 0.364. SW 1573 gave a relative viability of 0.509.

Same assay, conditions: first compound 0.253 µM
NCI-H522 was tested, and the relative viability was 0.589. PC-14 was tested, and the relative viability was 0.2. Cell Line NCI-H1666 has a relative viability of 0.706. Cell Line EKVX has a relative viability of 0.304. NCI-H1755 showed a relative viability of 0.716. With NCI-H2023 the relative viability was 0.203. Cell Line HCC-78 has a relative viability of 0.746. SK-LU-1 showed a relative viability of 0.684. For LOU-NH91, the relative viability was 0.77. NCI-H647 gave a relative viability of 0.521. In the case of NCI-H23, the relative viability is reported as 0.313. EPLC-272H gave a relative viability of 0.379. Cell Line NCI-H2126 has a relative viability of 0.604. With ChaGo-K-1 the relative viability was 0.502. Work on HCC-44 yielded a relative viability of 0.889. NCI-H1734 showed a relative viability of 0.499. With NCI-H650 the relative viability was 0.31. Cell Line LK-2 has a relative viability of 0.372. Cell Line NCI-H2342 has a relative viability of 0.681. For NCI-H1944, the relative viability was 0.44. COR-L23 was tested, and the relative viability was 0.461. With A549 the relative viability was 0.284. NCI-H520 showed a relative viability of 0.607. In the case of NCI-H661, the relative viability is reported as 0.514. COR-L 105 gave a relative viability of 0.55. In the case of NCI-H1650, the relative viability is reported as 0.44. NCI-H2009 was tested, and the relative viability was 0.333. SK-MES-1 was tested, and the relative viability was 0.397. SW 1573 showed a relative viability of 0.605.

Same assay, conditions: first compound 0.8 µM
With NCI-H522 the relative viability was 0.683. Work on PC-14 yielded a relative viability of 0.249. NCI-H1666 was tested, and the relative viability was 0.679. EKVX showed a relative viability of 0.381. NCI-H1755 was tested, and the relative viability was 0.739. For NCI-H2023, the relative viability was 0.246. For HCC-78, the relative viability was 0.623. In the case of SK-LU-1, the relative viability is reported as 0.552. Cell Line PC-3 [JPC-3] has a relative viability of 0.806. Cell Line LOU-NH91 has a relative viability of 0.886. Cell Line NCI-H647 has a relative viability of 0.381. In the case of NCI-H23, the relative viability is reported as 0.324. With EPLC-272H the relative viability was 0.396. Cell Line NCI-H2126 has a relative viability of 0.569. Cell Line ChaGo-K-1 has a relative viability of 0.509. Work on HCC-44 yielded a relative viability of 1.03. NCI-H1734 was tested, and the relative viability was 0.429. NCI-H650 showed a relative viability of 0.324. With LK-2 the relative viability was 0.284. For NCI-H2342, the relative viability was 0.756. Work on NCI-H1944 yielded a relative viability of 0.429. COR-L23 was tested, and the relative viability was 0.418. A549 showed a relative viability of 0.332. SW 900 showed a relative viability of 0.442. In the case of NCI-H1648, the relative viability is reported as 0.514. NCI-H520 showed a relative viability of 0.536. In the case of NCI-H661, the relative viability is reported as 0.607. COR-L 105 gave a relative viability of 0.632. Work on NCI-H1650 yielded a relative viability of 0.366. Work on NCI-H2009 yielded a relative viability of 0.41. In the case of SK-MES-1, the relative viability is reported as 0.359. SW 1573 gave a relative viability of 0.542.

Same assay, conditions: first compound 2.53 µM
Work on NCI-H522 yielded a relative viability of 0.616. PC-14 was tested, and the relative viability was 0.15. In the case of NCI-H1666, the relative viability is reported as 0.673. Cell Line EKVX has a relative viability of 0.319. With NCI-H1755 the relative viability was 0.842. Work on NCI-H2023 yielded a relative viability of 0.227. In the case of HCC-78, the relative viability is reported as 0.744. Work on SK-LU-1 yielded a relative viability of 0.647. With PC-3 [JPC-3] the relative viability was 0.81. In the case of LOU-NH91, the relative viability is reported as 0.829. With NCI-H647 the relative viability was 0.441. NCI-H23 showed a relative viability of 0.354. EPLC-272H showed a relative viability of 0.368. NCI-H2126 was tested, and the relative viability was 0.597. ChaGo-K-1 gave a relative viability of 0.531. With HCC-44 the relative viability was 0.943. For NCI-H1734, the relative viability was 0.5. NCI-H650 was tested, and the relative viability was 0.317. LK-2 gave a relative viability of 0.319. For NCI-H2342, the relative viability was 0.683. NCI-H1944 was tested, and the relative viability was 0.445. COR-L23 gave a relative viability of 0.467. For A549, the relative viability was 0.316. Work on SW 900 yielded a relative viability of 0.451. Cell Line NCI-H1648 has a relative viability of 0.562. Work on NCI-H520 yielded a relative viability of 0.511. With NCI-H661 the relative viability was 0.555. COR-L 105 showed a relative viability of 0.622. NCI-H1650 was tested, and the relative viability was 0.44. NCI-H2009 was tested, and the relative viability was 0.417. With SK-MES-1 the relative viability was 0.477. Cell Line SW 1573 has a relative viability of 0.397.

Same assay, conditions: first compound 8 µM
Work on NCI-H522 yielded a relative viability of 0.714. For PC-14, the relative viability was 0.0833. In the case of NCI-H1666, the relative viability is reported as 0.711.

— the supplement of paper PMC10307832
